In US20260297542A1, “HERBICIDE RESISTANT PLANTS” (SYNGENTA CROP PROTECTION AG, priority 2023, published 2026) one finds Rate data, which are given here for 1 compound.

SMILES strings stand for the structures.

This assay addresses T1, His-TEV-AtPP01 ΔcTP L479N (SEQ ID NO: 372) (Arabidopsis thaliana, UniProt P55826, L479N).
T1 construct: with cTPs removed; made in house; host or cells: E. coli BL21 (DE3), His GraviTrap, partially purified
T1 sequence (P55826 with tags, fused parts or gaps L479N): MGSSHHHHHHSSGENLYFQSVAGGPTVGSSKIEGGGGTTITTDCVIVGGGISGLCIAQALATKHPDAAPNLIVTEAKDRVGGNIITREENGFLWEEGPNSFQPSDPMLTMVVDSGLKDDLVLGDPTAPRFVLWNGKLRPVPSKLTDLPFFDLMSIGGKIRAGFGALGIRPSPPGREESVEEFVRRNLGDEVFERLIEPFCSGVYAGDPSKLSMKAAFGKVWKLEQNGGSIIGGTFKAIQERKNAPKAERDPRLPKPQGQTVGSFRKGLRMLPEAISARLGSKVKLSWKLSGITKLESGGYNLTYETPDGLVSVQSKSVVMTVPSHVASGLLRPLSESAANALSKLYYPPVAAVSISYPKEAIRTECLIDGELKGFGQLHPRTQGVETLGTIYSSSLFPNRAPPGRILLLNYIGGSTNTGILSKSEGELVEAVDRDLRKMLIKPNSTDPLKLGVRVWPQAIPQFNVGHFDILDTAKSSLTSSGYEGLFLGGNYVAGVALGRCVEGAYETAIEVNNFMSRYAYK
Nature of the assay: activity rate of PPO variant in in vitro assay. In kind it is biochemical. Particulars: role: substrate; 1 uM protoporphyrinogen IX; no inhibitor. The text has this:
A pET24 plasmid containing a DNA sequence encoding variants of AtPPO1 derived from Arabidopsis thaliana with cTPs removed and both a 6×His tag and TEV protease cleavage tag added at the N-terminus, codon-optimised for expression in E. coli, and under control of a T7 promoter, was synthesised by Twist Bioscience. The following variants were synthesised: WT AtPPO1 (SEQ ID NO: 370), AtPPO1 L479M (SEQ ID NO: 371), AtPPO1 L479N (SEQ ID NO: 372), AtPPO1 S305L Y426V (SEQ ID NO: 374) and AtPPO1 S305L Y426V L479M (SEQ ID NO: 373). This plasmid was expressed in E. coli BL21 (DE3) with 50 μg/mL kanamycin selection. 10 mL of overnight cultures grown at 37° C. were used to inoculate 1 L AIM (AIM-Terrific Broth Base including Trace elements, Formedium) in 2 L shake flasks. Cultures were grown at 37° C., 200 rpm for 3 hours and then overnight at 26° C. Cells were harvested centrifugation. 5-15 g of cell pellet was lysed in and resuspended in ratio of 1:1.5 in lysis buffer (20 mM Tris pH8, 500 mM sodium chloride, 10% glycerol, 1× complete Protease EDTA-free Inhibitor Tablet (Roche), 10 mM imidazole). The resuspension was sonicated at 75% using 10 cycles of 30 seconds, 40 seconds off. After sonication Triton X-100 was added to the lysates at a final concentration of 0.5%. The lysates were centrifuged at 20,000 rpm for 25 min at 4° C. Cleared lysates were loaded on His GraviTrap (Cytiva) columns, washed with 20 mL of lysis buffer and eluted in elution buffer (20 mM Tris pH8, 500 mM sodium chloride, 10% glycerol, 200 mM imidazole, 0.03% (v/v) Triton X-100). The eluate was desalted on a PD10 column and 2.5-3.2 mL was collected. Protein concentration was measured and calculated using the absorbance at 280 nm. Extracts were diluted 1 in 4 and 10 uL was analysed by SDS PAGE.
Partially purified Protoporphyrinogen Oxidase enzymes were assayed for activity using fluorescence adapted from the method of Shepherd & Dailey (Anal Biochem. 2005 344(1) 115-121). The assay was performed in black 384 well plates with a clear bottom and the total volume of the reaction mixture was 91 ul. The final assay mixture contained 100 mM K2HPO4 pH7.2, 1 mM Na2EDTA, 5 mM DTT, 20% glycerol (v/v), 0.05% Tween 20 (v/v), 1.1% DMSO (v/v), 1 uM protoporphyrinogen IX and 1.5 nM enzyme. Compounds were dissolved in DMSO at 1 mM and a 4-fold serial dilution carried out to give 8 rates. 1 ul was added to the assay mixture. This gave final compound concentrations of 11, 2.7, 0.69, 0.17, 0.04, 0.01, 0.002, 0.0007 uM. Enzyme and inhibitor were preincubated for 5 minutes prior to starting the reaction with the addition of the substrate. […] IC50s were calculated using GraphPad Prism 7.05 nonlinear regression (Table 6). Each compound was tested in duplicate.

Consider `C=Cc1c2[nH]c(c1C)Cc1[nH]c(c(CCC(=O)O)c1C)Cc1[nH]c(c(C)c1CCC(=O)O)Cc1[nH]c(c(C)c1C=C)C2` [protoporphyrinogen IX], for which the Rate was 13.2 rfu second^−1 pmole^−1.
